Assay results taken from patent publication US9957237B2, “Crystal form of neptinib di-p-methylbenzenesulfonate, preparation method thereof, and pharmaceutical composition containing same” (SHENZHEN NEPTUNUS PHARMACEUTICAL RESEARCH INSTITUTE CO., …, priority 2014, dated 2018).

Assay: Stability studies (stress testing, accelerated test for 10 days) on crystal forms and free base
Assay type: physicochemical
Protocol: Detection conditions: Chromatographic column: Waters C18; Mobile phase A: acetonitrile-mobile phase B (70:30); Mobile phase B: 0.05 mol/l ammonium dihydrogen phosphate solution (pH=7.3); Column temperature: 30° C.; Detection wavelength: 247 nm.
Detection method: High performance liquid chromatography method, Pharmacopoeia of the People's Republic of China, Part II Appendix VD

[1] = Day 10, relative humidity 92.5%
[2] = Day 10, stress condition not given

Compound: CCOc1cc2ncnc(Nc3ccc(F)c(Cl)c3)c2cc1NC(=O)/C=C/CN(C)C [Free base, (E)-N-(4-((3-chloro-4-fluorophenyl)amino)-7-ethoxyquinazolin-6-yl)-4-(dimethylamino)but-2-enamide, reference compound]
- Content (%) (40° C., Day 5): 98.96%
- Content (%) (40° C., Day 10): 98.59%
- Content (%) (60° C., Day 5): 96.77%
- Content (%) (60° C., Day 10): 95.15%
- Content (%) (Day 0): 99.37%
- Maximum single impurity (%) (Day 0): 0.45 (RRT: 1.11) %
- Maximum single impurity (%) (Day 5, 40° C.): 0.46 (RRT: 1.11) %
- Maximum single impurity (%) (Day 5, 60° C.): 2.14 (RRT: 0.44) %
- Maximum single impurity (%) (Day 10, 40° C.): 0.71 (RRT: 0.43) %
- Maximum single impurity (%) (Day 10, 60° C.): 2.88 (RRT: 0.43) %
- Stability (result in words) (under the condition of 60° C.): obviously degraded

Compound: CCOc1cc2ncnc(Nc3ccc(F)c(Cl)c3)c2cc1NC(=O)/C=C/CN(C)C.Cc1ccc(S(=O)(=O)O)cc1 [crystal form α, (E)-N-(4-((3-chloro-4-fluorophenyl)amino)-7-ethoxyquinazolin-yl)-4-(dimethylamino)but-2-enamide (Neptinib) di-p-methylbenzene sulfonate 1.5 hydrate]
- Maximum single impurity (%) (Day 0): 0.021 (RRT: 1.22) %
- Purity (%) (Day 0): 99.98%
- Total impurities (%) (Day 0): 0.02%
- Water (%) (Day 0): 3.3%
- Maximum single impurity (%) (Day 5, 40° C.): 0.022 (RRT: 1.22) %
- Purity (%) (Day 5, 40° C.): 99.98%
- Total impurities (%) (Day 5, 40° C.): 0.02%
- Water (%) (Day 5, 40° C.): 3.3%
- Maximum single impurity (%) (Day 5, 60° C.): 0.022 (RRT: 1.22) %
- Purity (%) (Day 5, 60° C.): 99.96%
- Total impurities (%) (Day 5, 60° C.): 0.04%
- Water (%) (Day 5, 60° C.): 3.3%
- Maximum single impurity (%) (Day 5, light irradiation): 0.051 (RRT: 0.93) %
- Purity (%) (Day 5, light irradiation): 99.93%
- Total impurities (%) (Day 5, light irradiation): 0.07%
- Water (%) (Day 5, light irradiation): 3.1%
- Maximum single impurity (%) (Day 5, relative humidity 75%): 0.021 (RRT: 1.22) %
- Purity (%) (Day 5, relative humidity 75%): 99.98%
- Total impurities (%) (Day 5, relative humidity 75%): 0.02%
- Water (%) (Day 5, relative humidity 75%): 3.1%
- Maximum single impurity (%) (Day 5, relative humidity 92.5%): 0.021 (RRT: 1.22) %
- Purity (%) (Day 5, relative humidity 92.5%): 99.98%
- Total impurities (%) (Day 5, relative humidity 92.5%): 0.02%
- Water (%) (Day 5, relative humidity 92.5%): 3.2%
- Maximum single impurity (%) (Day 10, 40° C.): 0.022 (RRT: 1.22) %
- Purity (%) (Day 10, 40° C.): 99.98%
- Total impurities (%) (Day 10, 40° C.): 0.02%
- Water (%) (Day 10, 40° C.): 3.3%
- Maximum single impurity (%) (Day 10, 60° C.): 0.020 (RRT: 1.22) %
- Purity (%) (Day 10, 60° C.): 99.96%
- Total impurities (%) (Day 10, 60° C.): 0.04%
- Water (%) (Day 10, 60° C.): 3.3%
- Maximum single impurity (%) (Day 10, light irradiation): 0.055 (RRT: 0.93) %
- Purity (%) (Day 10, light irradiation): 99.91%
- Total impurities (%) (Day 10, light irradiation): 0.09%
- Water (%) (Day 10, light irradiation): 3.1%
- Maximum single impurity (%) (Day 10, relative humidity 75%): 0.022 (RRT: 1.22) %
- Purity (%) (Day 10, relative humidity 75%): 99.98%
- Total impurities (%) (Day 10, relative humidity 75%): 0.02%
- Water (%) (Day 10, relative humidity 75%): 3.1%
- Maximum single impurity (%) [1]: 0.022 (RRT: 1.22) %
- Purity (%) [1]: 99.98%
- Total impurities (%) [1]: 0.02%
- Water (%) [1]: 3.2%
- Maximum single impurity (%) [2]: 0.022 (RRT: 1.22) %
- Purity (%) [2]: 99.98%
- Total impurities (%) [2]: 0.02%
- Water (%) [2]: 3.2%

Compound: CCOc1cc2ncnc(Nc3ccc(F)c(Cl)c3)c2cc1NC(=O)/C=C/CN(C)C.Cc1ccc(S(=O)(=O)O)cc1.Cc1ccc(S(=O)(=O)O)cc1.O.O [crystal form β, (E)-N-(4-((3-chloro-4-fluorophenyl)amino)-7-ethoxyquinazolin-6-yl)-4-(dimethylamino)but-2-enamide (Neptinib) di-p-methylbenzene sulfonate 2 hydrate]
- Maximum single impurity (%) (Day 0): 0.017 (RRT: 1.22) %
- Purity (%) (Day 0): 99.97%
- Total impurities (%) (Day 0): 0.03%
- Water (%) (Day 0): 4.4%
- Maximum single impurity (%) (Day 5, 40° C.): 0.020 (RRT: 1.22) %
- Purity (%) (Day 5, 40° C.): 99.97%
- Total impurities (%) (Day 5, 40° C.): 0.03%
- Water (%) (Day 5, 40° C.): 4.4%
- Maximum single impurity (%) (Day 5, 60° C.): 0.151 (RRT: 0.93) %
- Purity (%) (Day 5, 60° C.): 99.83%
- Total impurities (%) (Day 5, 60° C.): 0.17%
- Water (%) (Day 5, 60° C.): 4.3%
- Maximum single impurity (%) (Day 5, light irradiation): 0.032 (RRT: 1.17) %
- Purity (%) (Day 5, light irradiation): 99.94%
- Total impurities (%) (Day 5, light irradiation): 0.06%
- Water (%) (Day 5, light irradiation): 4.4%
- Maximum single impurity (%) (Day 5, relative humidity 75%): 0.019 (RRT: 1.22) %
- Purity (%) (Day 5, relative humidity 75%): 99.97%
- Total impurities (%) (Day 5, relative humidity 75%): 0.03%
- Water (%) (Day 5, relative humidity 75%): 4.4%
- Maximum single impurity (%) (Day 5, relative humidity 92.5%): 0.018 (RRT: 1.22) %
- Purity (%) (Day 5, relative humidity 92.5%): 99.97%
- Total impurities (%) (Day 5, relative humidity 92.5%): 0.03%
- Water (%) (Day 5, relative humidity 92.5%): 4.5%
- Maximum single impurity (%) (Day 10, 40° C.): 0.020 (RRT: 122) %
- Purity (%) (Day 10, 40° C.): 99.98%
- Total impurities (%) (Day 10, 40° C.): 0.02%
- Water (%) (Day 10, 40° C.): 4.5%
- Maximum single impurity (%) (Day 10, 60° C.): 0.020 (RRT: 1.22) %
- Purity (%) (Day 10, 60° C.): 99.94%
- Total impurities (%) (Day 10, 60° C.): 0.06%
- Water (%) (Day 10, 60° C.): 4.4%
- Maximum single impurity (%) (Day 10, light irradiation): 0.177 (RRT: 0.93) %
- Purity (%) (Day 10, light irradiation): 99.80%
- Total impurities (%) (Day 10, light irradiation): 0.20%
- Water (%) (Day 10, light irradiation): 4.5%
- Maximum single impurity (%) (Day 10, relative humidity 75%): 0.022 (RRT: 1.22) %
- Purity (%) (Day 10, relative humidity 75%): 99.98%
- Total impurities (%) (Day 10, relative humidity 75%): 0.02%
- Water (%) (Day 10, relative humidity 75%): 4.4%
- Maximum single impurity (%) [1]: 0.021 (RRT: 1.22) %
- Purity (%) [1]: 99.98%
- Total impurities (%) [1]: 0.02%
- Water (%) [1]: 4.5%
- Maximum single impurity (%) [2]: 0.022 (RRT: 1.22) %
- Purity (%) [2]: 99.98%
- Total impurities (%) [2]: 0.02%
- Water (%) [2]: 4.3%
